Patent publication US12472193B2, “Methods and compositions for treating and preventing respiratory related diseases and conditions with xylitol-headgroup lipid analogs” (National Jewish Health, priority 2017, dated 2025)
“Also recorded” adds a separate entry of the source.

How the values were obtained:
[1] = target: T1, TLR 4 (Mus musculus, UniProt Q9JHF9+Q9QUK6); experiment: LPS-induced TNF-α secretion by RAW264.7 cells (TLR 4 antagonism); assay type: cell-based; conditions: for antagonism of TLR 4 activation (TNFα secretion): 10 ng/mL LPS, 50 μg/mL lipid; for antagonism of TLR 4 activation (TNFα secretion) / IC50 values (inhibition of TNFα release) / IC50: 4 hours; for IC50 values (inhibition of TNFα release) / IC50: RAW264.7, 10 ng/mL LPS, lipid 100 to 0.008 μg/mL; for IC50: read-out: IC50 values (inhibition of TNFα release) (converted); for potency as TLR 4 antagonist compared to POPG: from dose response curves
T1 construct: endogenous in cells; host or cells: RAW264.7 (ATCC)
T1 sequence (Q9QUK6 26-835): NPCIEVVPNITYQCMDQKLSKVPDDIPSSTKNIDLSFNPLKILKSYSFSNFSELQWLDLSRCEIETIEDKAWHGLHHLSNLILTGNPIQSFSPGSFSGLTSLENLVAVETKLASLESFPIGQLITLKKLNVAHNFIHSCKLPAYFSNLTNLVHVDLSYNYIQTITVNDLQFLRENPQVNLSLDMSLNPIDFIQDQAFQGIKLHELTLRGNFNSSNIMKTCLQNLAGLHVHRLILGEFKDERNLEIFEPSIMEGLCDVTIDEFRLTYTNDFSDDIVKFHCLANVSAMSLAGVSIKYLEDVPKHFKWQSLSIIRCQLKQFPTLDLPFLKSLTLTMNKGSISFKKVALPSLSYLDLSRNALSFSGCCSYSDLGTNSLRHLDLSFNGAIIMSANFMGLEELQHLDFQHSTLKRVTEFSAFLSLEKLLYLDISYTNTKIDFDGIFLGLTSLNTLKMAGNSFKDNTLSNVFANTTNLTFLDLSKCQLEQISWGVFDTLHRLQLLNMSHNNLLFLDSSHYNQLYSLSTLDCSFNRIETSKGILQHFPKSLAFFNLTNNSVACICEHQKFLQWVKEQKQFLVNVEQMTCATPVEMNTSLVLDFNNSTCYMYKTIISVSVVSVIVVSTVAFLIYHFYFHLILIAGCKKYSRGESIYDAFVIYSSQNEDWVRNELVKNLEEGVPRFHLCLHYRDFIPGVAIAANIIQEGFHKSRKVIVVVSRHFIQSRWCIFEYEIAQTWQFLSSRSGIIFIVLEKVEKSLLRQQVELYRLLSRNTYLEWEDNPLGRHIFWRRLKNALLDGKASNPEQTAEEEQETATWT
T1 sequence (Q9JHF9 19-160): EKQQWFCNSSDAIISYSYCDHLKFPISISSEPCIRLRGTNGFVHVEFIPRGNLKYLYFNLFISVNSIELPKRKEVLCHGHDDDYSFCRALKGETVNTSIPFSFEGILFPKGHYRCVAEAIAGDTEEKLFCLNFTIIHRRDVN
Protocol: The mouse macrophage cell line, RAW264.7, was obtained from ATCC and maintained in DMEM, supplemented with 10% bovine growth serum and 1× penicillin streptomycin. Cells were maintained at 37° C. with 5% carbon dioxide: 95% air atmosphere within the incubator. Experiments were completed in a 96-well plate where cells were seated at a density of 1×10^5 cells per well, 24 prior to stimulation with TLR agonists and antagonists. Lipids were dried under a stream of nitrogen, hydrated with phosphate-buffered saline (PBS) at 37° C. for one hour, followed by water bath sonication to create liposomes. Each condition for cell stimulation and antagonism was prepared in DMEM in a separate tube and consisted of: control, TLR agonist, TLR agonist+lipid, and lipid alone. 100 μL aliquots of medium+agonists+antagonists were added to each well and incubated at 37° C. for 4 hours. Subsequently, the media were collected, diluted and an enzyme-linked immunosorbent assay (ELISA) was performed to quantify TNFα release by cells.
The additional experiments disclosed herein, tested the initial activity of multiple POPG analogs. […] However, it was unknown how the combination of a xylitol head group along with varying hydrophobic chains affects this activity and mechanism of suppression. Varying the hydrophobic chains provides an approach for optimization of a PX lipid for maximum efficacy and uncovers important structure/function relationships. To test antagonist activity of PX lipids for preventing the activation of TLR 4, LPS was added to RAW264.7 cells at 10 ng/mL in the absence or presence of 50 μg/mL of lipid and incubated for 4 hours. After incubation, media were collected and secretion of the proinflammatory cytokine, TNFα, was quantified by ELISA as a downstream consequence of TLR 4 activation. Eight xylitol lipid analogs suppressed the activation of TLR 4 in the presence of LPS stimulus. […] Although inhibition of TLR 4 by DSPX was statistically different from LPS alone, its antagonism was marginal. DSPX is also a saturated lipid and the hydrophobic chains are 18 carbons in length. […] In these studies none of the lipids alone elicited significant amounts of proinflammatory cytokine release.
For quantitative comparisons between POPG analogs and POPG, concentration-dependent inhibition studies were performed and IC50 values were determined. RAW264.7 cells were stimulated with 10 ng/mL of LPS in combination with concentrations of lipid from 100 μg/mL to 0.008 μg/mL. Cells were stimulated for 4 hours followed by collection of media and quantification of TNFα released into the medium.

[2] = system: RSV; experiment: Binding of RSV to solid phase phospholipid; set-up: species or system human RSV A2 strain; conditions: 0.625 nmol lipid, 37° C., 1 hour
Protocol: Lipids were dried under a stream of nitrogen and resuspended in 100% ethanol, and 0.625 nmol was added in a 40 μL volume to each well of a half-area, 96-well plate. The solvent was evaporated under warm air for 90 minutes. 120 μL of blocking solution (150 mM NaCl, 20 mM Tris pH 7, 5 mM CaCl2) containing 3% BSA w/v) was added to each well and incubated for 1 hour at room temperature. Wells were washed 3 times with (150 mM NaCl, 20 mM Tris pH 7, 5 mM CaCl2)) followed by the addition of 40 μL of serial dilutions of RSV (2.5×10^7, 1.25×10^7, 0.625×10^7, 0.3125×10^7, 0.15625×10^7 pfu/mL) in blocking solution to each well and the plate was incubated at 37° C. for 1 hour. The wells were washed 3 times and 40 μL of α-RSV:HRP antibody diluted 1:500 was added and incubated at 37° C. for 1 hour. After washing out the primary antibody, the peroxidase activity was detected with the substrate o-phenylenediamine and the absorbance read at 490 nm to detect degree of binding.
A quantitative plaque assay takes a week to develop without accounting for maintenance of cells. In order to determine the mechanism of antiviral action of PX analogs and explore a faster assay that could easily be mass-produced, lipids were assessed for their ability to bind RSV. A solid phase of 0.625 nmol of lipid was dried onto a 96-well plate. Binding of fluid-phase RSV to the lipids was assessed at viral concentrations of 8×105 to 2.5×10^7 pfu/mL, at 37° C. for 1 hour. Viral binding was detected with a primary anti-RSV antibody conjugated to HRP. The peroxidase reaction was developed with o-phenylenediamine and absorbance measurement at 490 nm.

| Compound | antagonism of TLR 4 activation (TNFα secretion) [1] | IC50 values (inhibition of TNFα release) [1] | binding of solid phase lipid to RSV [2] | IC50 [1] | potency as TLR 4 antagonist compared to POPG [1] | inhibitory concentration reducing TNF-α production by 50% (IC50), as shown in FIG. 3 ([1]; RAW264.7, 10 ng/ml LPS) |
| --- | --- | --- | --- | --- | --- | --- |
| CCCCCCCCCCCCCCCC(=O)OCC(COP(=O)(O)OCC(O)C(O)C(O)CO)OC(=O)CCCCCCCCCCCCCCC (stereo not drawn) [DPPX, sn-1-palmitoyl, sn-2-palmitoyl sn-3 glycerol phosphoxylitol] | ineffective as an antagonist | could not be determined | bound strongly |  |  |  |
| CCCCCCC=CCCCCCCCC(=O)OCC(COP(=O)(O)OCC(O)C(O)C(O)CO)OC(=O)CCCCCCCC=CCCCCCC (mixture of isomers) [16:1 DPPX, sn-1-palmitoleoyl, sn-2-palmitoleoyl sn-3 glycerol phosphoxylitol] |  | 1 µg/mL | only bind weakly |  |  |  |
| CCCCCCCCCCCCCCCCCC(=O)OCC(COP(=O)(O)OCC(O)C(O)C(O)CO)OC(=O)CCCCCCCCCCCCCCCCC (stereo not drawn) [DSPX, sn-1-stearoyl, sn-2-stearoyl sn-3 glycerol phosphoxylitol] | marginal | could not be determined | bound strongly |  |  |  |
| CCCCCCCCCCCCCCOC[C@H](COP(=O)(O)OCC(O)C(O)C(O)CO)OCCCCCCCCCCCCCC (mixture of isomers) [14:0 DEPX, sn-1-O-myristyl, sn-2-O-myristyl sn-3 glycerol phosphoxylitol] | effective antagonists |  | bound to the RSV virus strongly | 4.08 µM |  |  |
| CCCCCC=CCC=CCCCCCCCC(=O)OCC(COP(=O)(O)OCC(O)C(O)C(O)CO)OC(=O)CCCCCCCC=CCC=CCCCCC (mixture of isomers) [18:2 DLPX, sn-1-linoleoyl, sn-2-linoleoyl sn-3 glycerol phosphoxylitol] |  | 0.28 µg/mL | only bind weakly |  | more potent antagonists of TLR 4 activation than POPG |  |
| CCCCCCCCCCCCCC(=O)OC[C@H](COP(=O)(O)OCC(O)C(O)C(O)CO)OC(=O)CCCCCCCCCCCCC (mixture of isomers) [DMPX, sn-1-myristoyl, sn-2-myristoyl sn-3 glycerol phosphoxylitol] | strong antagonistic activity |  | bound strongly | 33 µM |  |  |
| CCCCCCCC/C=C\CCCCCCCC(=O)O[C@H](COC(=O)CCCCCCCCCCCCCCC)COP(=O)([O-])OCC[N+](C)(C)C [POPC, 1-palmitoyl-2-oleoyl-sn-glycero-3-phosphocholine, reference compound] | does not significantly alter the activation of TLR4 | could not be determined |  |  |  |  |
| CCCCCCCC/C=C\CCCCCCCC(=O)O[C@H](COC(=O)CCCCCCCCCCCCCCC)COP(=O)(O)OCC(O)C(O)C(O)CO (stereo partly drawn) [POPX, sn-1-palmitoyl, sn-2-oleoyly sn-3 glycerol phosphoxylitol] |  | 0.52 µg/mL | affinity comparable to that of POPG |  | more potent antagonists of TLR 4 activation than POPG |  |
| CCCCCCCCC=CCCCCCCCC(=O)OCC(COP(=O)(O)OCC(O)C(O)C(O)CO)OC(=O)CCCCCCCC=CCCCCCCCC (mixture of isomers) [DOPX, sn-1-oleoyl, sn-2-oleoyl sn-3 glycerol phosphoxylitol] | inhibit | 0.36 µg/mL | only bind weakly |  | more potent antagonists of TLR 4 activation than POPG |  |
| CCCCCCCCC=CCCCCCCCCOCC(COP(=O)(O)OCC(O)C(O)C(O)CO)OCCCCCCCCC=CCCCCCCCC (mixture of isomers) [18:1 DEPX, sn-1-O-octadecenyl, sn-2-O-octadecenyl sn-3 glycerol phosphoxylitol] | effective antagonists; also recorded: inhibit | 0.33 µg/mL | affinity comparable to that of POPG |  | more potent antagonists of TLR 4 activation than POPG |  |
| CCCCCCCC/C=C\CCCCCCCC(=O)O[C@H](COC(=O)CCCCCCCCCCCCCCC)COP(=O)(O)OCC(O)CO (stereo partly drawn) [POPG, palmitoyl-oleoyl-phosphatidylglycerol, reference compound] | inhibits activation of TLR4 | 3.33 µg/mL |  |  |  | ~2 µg/mL |
